Assay results from publication PMC4493534 (Theranostics, 2015).

Legend:
TSPO [1] = molecular target: TSPO (Rattus norvegicus, UniProt P16257); conditions: ischemic rat brain, previously published data; cited from earlier work
TSPO [2] = assay: In vitro autoradiography of postmortem human brain; format: binding; conditions: postmortem human temporal cortex sections, 0.5 nM radioligand

TSPO (Rattus norvegicus, UniProt P16257), sequence (P16257 whole entry): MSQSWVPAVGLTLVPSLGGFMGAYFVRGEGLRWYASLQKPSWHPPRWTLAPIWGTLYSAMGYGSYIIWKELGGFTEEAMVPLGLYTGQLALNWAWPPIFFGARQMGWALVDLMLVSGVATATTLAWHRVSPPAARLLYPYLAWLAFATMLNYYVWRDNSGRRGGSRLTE

binding ratio for HAB-1 to that of LAB-1, RB(H/L) (also printed RB(L/H)) (TSPO [2])	Compound	apparent BPND (SRTM) (TSPO [1])
–	CC[C@@H](C)N([11CH3])C(=O)c1cc2ccccc2c(-c2ccccc2Cl)n1 [(R)[^11C]PK11195]	1.59 ± 0.33
~4.60	CCN(Cc1ccccc1)C(=O)Cn1c(=O)n(C)c2cnc(-c3ccccc3)nc21 [[^11C]AC-5216]	–
~1.19	COc1ccc(O[11CH3])c(CN(C(C)=O)c2cc(F)ccc2Oc2ccccc2)c1 [[^11C]DAA1106]	–
